According to patent US12662491B2 (Redona Therapeutics, Inc., priority 2020, dated 2026):

target: T1, Zcchc11 enzyme (Homo sapiens, UniProt Q5TAX3); assay: TUTase assay (Zcchc11 assay, Lin28a-dependent polyuridylation of pre-let-7); format: biochemical; settings: Lin28a-dependent Zcchc11 (Z11) TUTase assay; read-out: Potency Lin28a-dep Z11 IC50
T1 construct: made in house; host or cells: HEK293 cells (Zcchc11); E. coli Rosetta II (LIN28A)
T1 sequence (Q5TAX3 212-1420): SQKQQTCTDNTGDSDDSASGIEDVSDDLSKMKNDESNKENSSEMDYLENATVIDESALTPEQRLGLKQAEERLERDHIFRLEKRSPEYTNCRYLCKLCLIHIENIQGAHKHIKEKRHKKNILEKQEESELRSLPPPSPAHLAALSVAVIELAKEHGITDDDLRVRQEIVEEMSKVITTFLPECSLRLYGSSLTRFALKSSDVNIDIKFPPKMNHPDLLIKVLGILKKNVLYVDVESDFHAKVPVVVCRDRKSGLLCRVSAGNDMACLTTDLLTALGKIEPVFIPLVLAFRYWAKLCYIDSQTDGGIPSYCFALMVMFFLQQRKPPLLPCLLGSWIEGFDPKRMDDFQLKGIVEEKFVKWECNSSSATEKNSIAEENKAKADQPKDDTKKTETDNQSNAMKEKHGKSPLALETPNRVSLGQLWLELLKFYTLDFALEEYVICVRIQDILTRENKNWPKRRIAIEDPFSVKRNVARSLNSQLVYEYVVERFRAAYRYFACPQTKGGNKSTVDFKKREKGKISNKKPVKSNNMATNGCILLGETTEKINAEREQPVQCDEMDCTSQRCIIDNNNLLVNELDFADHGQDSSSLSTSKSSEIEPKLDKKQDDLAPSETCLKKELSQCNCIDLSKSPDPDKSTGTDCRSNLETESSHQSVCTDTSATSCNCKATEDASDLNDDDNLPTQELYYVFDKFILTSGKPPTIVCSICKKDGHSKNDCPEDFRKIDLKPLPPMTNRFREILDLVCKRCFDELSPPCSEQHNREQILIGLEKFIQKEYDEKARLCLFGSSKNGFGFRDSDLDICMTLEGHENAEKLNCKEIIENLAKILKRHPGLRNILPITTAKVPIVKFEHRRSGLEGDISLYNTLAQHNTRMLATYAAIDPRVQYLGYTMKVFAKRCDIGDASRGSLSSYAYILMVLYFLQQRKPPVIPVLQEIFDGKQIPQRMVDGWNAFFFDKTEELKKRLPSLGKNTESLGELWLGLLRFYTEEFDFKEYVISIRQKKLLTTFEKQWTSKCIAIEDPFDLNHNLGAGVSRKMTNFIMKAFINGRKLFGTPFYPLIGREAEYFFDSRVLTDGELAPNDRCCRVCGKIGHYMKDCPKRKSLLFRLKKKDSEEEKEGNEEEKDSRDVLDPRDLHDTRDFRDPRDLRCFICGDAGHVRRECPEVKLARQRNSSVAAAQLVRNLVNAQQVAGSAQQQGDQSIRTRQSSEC
How it was run: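 Potency is measured as inhibition of LIN28A-driven U-tail addition to 2 nM pre-let-7 by 0.2 nM HEK293-derived Zcchc11 fragment with 5 uM UTP at room temperature. Tail growth appears as fluorescein quenching by an annealing rhodamine-A20 probe.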

Row | Structure (SMILES) | IC50 [nM]
1 | COCCOc1ccc(-n2cc(C(=O)O)c(=O)c3cc(Cl)c(N4CCC[C@@H]4COc4ncccc4Cl)cc32)cn1 [Example 415, (R)-6-chloro-7-(2-(((3-chloropyridin-2-yl)oxy)methyl)pyrrolidin-1-yl)-1-(6-(2-methoxy-ethoxy)pyridin-3-yl)-4-oxo-1,4-dihydroquinoline-3-carboxylic acid] | ≤ 1000
2 | CN(C)CCNc1ccc(-n2cc(C(=O)O)c(=O)c3cc(Cl)c(N4CCC[C@@H]4COc4ncccc4Cl)cc32)cn1 [Example 416, (R)-6-chloro-7-(2-(((3-chloropyridin-2-yl)oxy)methyl)pyrrolidin-1-yl)-1-(6-((2-(dimethylamino)ethyl)amino)pyridin-3-yl)-4-oxo-1,4-dihydroquinoline-3-carboxylic acid] | ≤ 1000
3 | CNc1ccc(-n2cc(C(=O)O)c(=O)c3cc(Cl)c(N4CCC[C@@H]4COc4ncccc4Cl)cc32)cn1 [Example 417, (R)-6-chloro-7-(2-(((3-chloropyridin-2-yl)oxy)methyl)pyrrolidin-1-yl)-1-(6-(methylamino)pyridin-3-yl)-4-oxo-1,4-dihydroquinoline-3-carboxylic acid] | ≤ 1000
4 | CN(C)CCOc1ccc(-n2cc(C(=O)O)c(=O)c3cc(Cl)c(N4CCC[C@@H]4COc4ncccc4Cl)cc32)cn1 [Example 418, (R)-6-chloro-7-(2-(((3-chloropyridin-2-yl)oxy)methyl)pyrrolidin-1-yl)-1-(6-(2-(dimethylamino)ethoxy)pyridin-3-yl)-4-oxo-1,4-dihydroquinoline-3-carboxylic acid] | ≤ 1000
5 | COCCOc1cnc(-n2cc(C(=O)O)c(=O)c3cc(Cl)c(N4CCC[C@@H]4COc4ncccc4Cl)cc32)cn1 [Example 419, (R)-6-chloro-7-(2-(((3-chloropyridin-2-yl)oxy)methyl)pyrrolidin-1-yl)-1-(5-(2-methoxy-ethoxy)pyrazin-2-yl)-4-oxo-1,4-dihydroquinoline-3-carboxylic acid] | ≤ 1000
6 | COCCN(C)c1ccc(-n2cc(C(=O)O)c(=O)c3cc(Cl)c(N4CCC[C@@H]4COc4ncccc4Cl)cc32)cn1 [Example 420, (R)-6-chloro-7-(2-(((3-chloropyridin-2-yl)oxy)methyl)pyrrolidin-1-yl)-1-(6-((2-methoxy-ethyl)(methyl)amino)pyridin-3-yl)-4-oxo-1,4-dihydroquinoline-3-carboxylic acid] | ≤ 1000
7 | CN(C)c1ccc(-n2cc(C(=O)O)c(=O)c3cc(Cl)c(N4CCC[C@@H]4COc4ncccc4Cl)cc32)cn1 [Example 421, (R)-6-chloro-7-(2-(((3-chloropyridin-2-yl)oxy)methyl)pyrrolidin-1-yl)-1-(6-(dimethyl-amino)pyridin-3-yl)-4-oxo-1,4-dihydroquinoline-3-carboxylic acid] | ≤ 1000
8 | O=C(O)c1cn(-c2ccc(N3CCC3)nc2)c2cc(N3CCC[C@@H]3COc3ncccc3Cl)c(Cl)cc2c1=O [Example 422, (R)-1-(6-(azetidin-1-yl)pyridin-3-yl)-6-chloro-7-(2-(((3-chloropyridin-2-yl)oxy)methyl)pyrrolidin-1-yl)-4-oxo-1,4-dihydroquinoline-3-carboxylic acid] | ≤ 1000
9 | O=C(O)c1cn(-c2ccc(N3CC(O)C3)nc2)c2cc(N3CCC[C@@H]3COc3ncccc3Cl)c(Cl)cc2c1=O [Example 423, (R)-6-chloro-7-(2-(((3-chloropyridin-2-yl)oxy)methyl)pyrrolidin-1-yl)-1-(6-(3-hydroxy-azetidin-1-yl)pyridin-3-yl)-4-oxo-1,4-dihydroquinoline-3-carboxylic acid] | ≤ 1000
10 | CN(C)c1cnc(-n2cc(C(=O)O)c(=O)c3cc(Cl)c(N4CCC[C@@H]4COc4ncccc4Cl)cc32)cn1 [Example 424, (R)-6-chloro-7-(2-(((3-chloropyridin-2-yl)oxy)methyl)pyrrolidin-1-yl)-1-(5-(dimethylamino)pyrazin-2-yl)-4-oxo-1,4-dihydroquinoline-3-carboxylic acid] | ≤ 1000
11 | O=C(O)c1cn(-c2cnccn2)c2cc(N3CCC[C@@H]3COc3ncccc3Cl)c(Cl)cc2c1=O [Example 425, (R)-6-chloro-7-(2-(((3-chloropyridin-2-yl)oxy)methyl)pyrrolidin-1-yl)-4-oxo-1-(pyrazin-2-yl)-1,4-dihydroquinoline-3-carboxylic acid] | ≤ 1000
12 | CC(=O)Nc1ccc(-n2cc(C(=O)O)c(=O)c3cc(Cl)c(N4CCC[C@@H]4COc4ncccc4Cl)cc32)cn1 [Example 426, (R)-1-(6-acetamidopyridin-3-yl)-6-chloro-7-(2-(((3-chloro-pyridin-2-yl)oxy)methyl)pyrrolidin-1-yl)-4-oxo-1,4-dihydroquinoline-3-carboxylic acid] | ≤ 1000
13 | CS(=O)(=O)Nc1ccc(-n2cc(C(=O)O)c(=O)c3cc(Cl)c(N4CCC[C@@H]4COc4ncccc4Cl)cc32)cc1 [Example 427, (R)-6-chloro-7-(2-(((3-chloropyridin-2-yl)oxy)methyl)pyrrolidin-1-yl)-1-(4-(methyl-sulfonamido)phenyl)-4-oxo-1,4-dihydroquinoline-3-carboxylic acid] | ≤ 1000
14 | O=C(O)c1cn(-c2ccnc(O)c2)c2cc(N3CCC[C@@H]3COc3ncccc3Cl)c(Cl)cc2c1=O [Example 428, (R)-6-chloro-7-(2-(((3-chloropyridin-2-yl)oxy)methyl)pyrrolidin-1-yl)-1-(2-hydroxypyridin-4-yl)-4-oxo-1,4-dihydroquinoline-3-carboxylic acid] | ≤ 1000
15 | O=C(O)c1cn(-c2ccc(CO)nc2)c2cc(N3CCC[C@@H]3COc3ncccc3Cl)c(Cl)cc2c1=O [Example 429, (R)-6-chloro-7-(2-(((3-chloropyridin-2-yl)oxy)methyl)pyrrolidin-1-yl)-1-(6-(hydroxymethyl)pyridin-3-yl)-4-oxo-1,4-dihydroquinoline-3-carboxylic acid] | ≤ 1000
16 | O=C(O)c1cn(-c2ccc(N3CCCCC3)nc2)c2cc(N3CCC[C@@H]3COc3ncccc3Cl)c(Cl)cc2c1=O [Example 430, (R)-6-chloro-7-(2-(((3-chloropyridin-2-yl)oxy)methyl)pyrrolidin-1-yl)-4-oxo-1-(6-(piperidin-1-yl)pyridin-3-yl)-1,4-dihydroquinoline-3-carboxylic acid] | ≤ 1000
17 | O=C(O)c1cn(-c2ccc(N3CCOCC3)nc2)c2cc(N3CCC[C@@H]3COc3ncccc3Cl)c(Cl)cc2c1=O [Example 431, (R)-6-chloro-7-(2-(((3-chloropyridin-2-yl)oxy)methyl)pyrrolidin-1-yl)-1-(6-morpholino-pyridin-3-yl)-4-oxo-1,4-dihydroquinoline-3-carboxylic acid] | ≤ 1000
18 | O=C(O)c1cn(-c2ccc(N3CCCC3)nc2)c2cc(N3CCC[C@@H]3COc3ncccc3Cl)c(Cl)cc2c1=O [Example 432, (R)-6-chloro-7-(2-(((3-chloropyridin-2-yl)oxy)methyl)pyrrolidin-1-yl)-4-oxo-1-(6-(pyrrolidin-1-yl)pyridin-3-yl)-1,4-dihydroquinoline-3-carboxylic acid] | ≤ 1000
19 | O=C(O)c1cn(-c2nncs2)c2cc(N3CCC[C@@H]3COc3ccccn3)c(F)cc2c1=O [Example 433, (R)-6-fluoro-4-oxo-7-(2-((pyridin-2-yloxy)methyl)pyrrolidin-1-yl)-1-(1,3,4-thiadiazol-2-yl)-1,4-dihydroquinoline-3-carboxylic acid] | 1000 to 10000
20 | O=C(O)c1cn(-c2cn[nH]c2)c2cc(N3CCC[C@@H]3COc3ncccc3Cl)c(Cl)cc2c1=O [Example 434, (R)-6-chloro-7-(2-(((3-chloropyridin-2-yl)oxy)methyl)pyrrolidin-1-yl)-4-oxo-1-(1H-pyrazol-4-yl)-1,4-dihydroquinoline-3-carboxylic acid] | 1000 to 10000
21 | COCCn1cc(-n2cc(C(=O)O)c(=O)c3cc(Cl)c(N4CCC[C@@H]4COc4ncccc4Cl)cc32)cn1 [Example 435, (R)-6-chloro-7-(2-(((3-chloropyridin-2-yl)oxy)methyl)pyrrolidin-1-yl)-1-(1-(2-methoxy-ethyl)-1H-pyrazol-4-yl)-4-oxo-1,4-dihydroquinoline-3-carboxylic acid] | ≤ 1000
